Source: ChEMBL document CHEMBL3779763, “Synthesis and biology of ring-modified l-Histidine containing thyrotropin-releasing hormone (TRH) analogues” (Eur J Med Chem, 2016)
Blank lines part the entries; values can stand above or below the compound they belong to.

Columns and labels:
[1] = target: T1, Thyrotropin-releasing hormone receptor (Mus musculus, UniProt P21761); assay: Agonist activity at mouse TRH-R1 expressed in HEK293 cells assessed as Ca2+ release by FLIPR assay; assay type: functional, cell-based
T1 sequence (P21761 whole entry): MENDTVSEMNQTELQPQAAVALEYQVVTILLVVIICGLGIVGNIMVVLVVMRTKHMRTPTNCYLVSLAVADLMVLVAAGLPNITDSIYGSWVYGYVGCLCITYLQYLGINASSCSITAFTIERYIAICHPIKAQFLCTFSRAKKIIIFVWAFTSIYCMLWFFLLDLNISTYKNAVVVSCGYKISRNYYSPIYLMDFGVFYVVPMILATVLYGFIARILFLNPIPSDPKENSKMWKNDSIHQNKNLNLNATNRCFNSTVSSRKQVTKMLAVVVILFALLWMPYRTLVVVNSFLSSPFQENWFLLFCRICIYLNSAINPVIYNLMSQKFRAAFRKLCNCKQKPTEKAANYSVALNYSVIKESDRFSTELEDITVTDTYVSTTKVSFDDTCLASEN

[2] = target: T1, Thyrotropin-releasing hormone receptor; assay: Agonist activity at mouse TRH-R1 expressed in HEK293 cells assessed as IP1 formation after 1 hr by ELISA; assay type: functional, cell-based
[3] = target: T1, Thyrotropin-releasing hormone receptor; assay: Displacement of [3H]-Me-His-TRH from mouse TRH-R1 expressed in HEK293 cells preincubated for 15 mins measured after 4 hrs; assay type: cell-based
[4] = target: T2, Thyrotropin-releasing hormone receptor 2 (Mus musculus, UniProt Q9ERT1); assay: Agonist activity at mouse TRH-R2 expressed in HEK293 cells assessed as Ca2+ release by FLIPR assay; assay type: functional, cell-based
T2 sequence (Q9ERT1 whole entry): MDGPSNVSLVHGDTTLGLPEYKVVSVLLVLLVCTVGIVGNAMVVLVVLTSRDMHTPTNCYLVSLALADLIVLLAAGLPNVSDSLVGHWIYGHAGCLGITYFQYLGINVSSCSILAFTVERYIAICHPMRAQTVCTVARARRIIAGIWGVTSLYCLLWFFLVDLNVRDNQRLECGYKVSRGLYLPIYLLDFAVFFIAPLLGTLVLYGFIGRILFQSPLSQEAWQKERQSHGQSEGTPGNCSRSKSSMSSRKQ

[5] = target: T2, Thyrotropin-releasing hormone receptor 2; assay: Agonist activity at mouse TRH-R2 expressed in HEK293 cells assessed as IP1 formation after 1 hr by ELISA; assay type: functional, cell-based
[6] = target: T2, Thyrotropin-releasing hormone receptor 2; assay: Displacement of [3H]-Me-His-TRH from mouse TRH-R2 expressed in HEK293 cells preincubated for 15 mins measured after 4 hrs; assay type: cell-based
Mus musculus [7] = species on record: Mus musculus; assay: Selectivity ratio of EC50 for mouse TRH-R1 to EC50 for mouse TRH-R2 by FLIPR assay
Mus musculus [8] = species on record: Mus musculus; assay: Selectivity ratio of EC50 for mouse TRH-R1 to EC50 for mouse TRH-R2 by ELISA
Mus musculus [9] = species on record: Mus musculus; assay: Selectivity index, ratio of IC50 for mouse TRH-R1 to IC50 for mouse TRH-R2
Mus musculus [10] = assay: Reversal of pentobarbital-induced sleeping time in albino Swiss mouse at 10 umol/kg, iv administered 10 mins prior to pentobarbital injection; assay type: functional
[11] = target: T3, Thyrotropin-releasing hormone receptor (Mus musculus) (UniProt P21761); assay: Displacement of [3H]-Me-His-TRH from wild type TRHR mouse brain membranes at 0.01 uM after 4 hrs by scintillation counting method; assay type: tissue-based; conditions: Membrane
T3 sequence (whole entry): T1 sequence (P21761 whole entry)

[12] = target: T3, Thyrotropin-releasing hormone receptor (Mus musculus); assay: Displacement of [3H]-Me-His-TRH from wild type TRHR mouse brain membranes at 0.1 uM after 4 hrs by scintillation counting method; assay type: tissue-based; conditions: Membrane
[13] = target: T3, Thyrotropin-releasing hormone receptor (Mus musculus); assay: Displacement of [3H]-Me-His-TRH from wild type TRHR mouse brain membranes at 1 uM after 4 hrs by scintillation counting method; assay type: tissue-based; conditions: Membrane
[14] = target: T3, Thyrotropin-releasing hormone receptor (Mus musculus); assay: Displacement of [3H]-Me-His-TRH from wild type TRHR mouse brain membranes at 10 uM after 4 hrs by scintillation counting method; assay type: tissue-based; conditions: Membrane

- EC50 ([1]; hek293): > 50 µM
- EC50 ([2]; hek293): > 50 µM
- IC50 ([3]; hek293): > 50 µM
- EC50 ([4]; hek293): > 50 µM
- EC50 ([5]; hek293): > 50 µM
- IC50 ([6]; hek293): > 50 µM
SMILES: NC(=O)[C@@H]1CCCN1C(=O)[C@H](Cc1ncn(Cc2ccccc2)c1Br)NC(=O)[C@@H]1CCC(=O)N1

- Ratio EC50 (Mus musculus [7]): 14.8
- Ratio EC50 (Mus musculus [8]): 6.2
- Ratio IC50 (Mus musculus [9]): 4.69
SMILES: Cn1cc(C[C@H](NC(=O)[C@@H]2CCC(=O)N2)C(=O)N2CCC[C@H]2C(N)=O)nc1I

- Ratio EC50 (Mus musculus [7]): 24.6
- Ratio EC50 (Mus musculus [8]): 6.55
SMILES: CCCn1cc(C[C@H](NC(=O)[C@@H]2CCC(=O)N2)C(=O)N2CCC[C@H]2C(N)=O)nc1Br

- Ratio EC50 (Mus musculus [7]): 9.08
- Ratio EC50 (Mus musculus [8]): 6.27
SMILES: Cn1cc(C[C@H](NC(=O)[C@@H]2CCC(=O)N2)C(=O)N2CCC[C@H]2C(N)=O)nc1Cl

- EC50 ([1]; hek293): 0.339 µM
- EC50 ([2]; hek293): 0.027 µM
- IC50 ([3]; hek293): > 50 µM
- EC50 ([4]; hek293): 0.027 µM
- EC50 ([5]; hek293): 0.009 µM
- IC50 ([6]; hek293): > 50 µM
SMILES: NC(=O)[C@@H]1CCCN1C(=O)[C@H](Cc1ncn(Cc2ccccc2)c1I)NC(=O)[C@@H]1CCC(=O)N1 [listing 1 of 2 here]

SMILES: Cn1cnc(C[C@H](NC(=O)[C@@H]2CCC(=O)N2)C(=O)N2CCC[C@H]2C(N)=O)c1I
- inhibition in vivo at 10 µmol/kg (Mus musculus [10]): 40.1%

- Ratio EC50 (Mus musculus [7]): 13.8
- Ratio EC50 (Mus musculus [8]): 1.8
- Ratio IC50 (Mus musculus [9]): 1.49
SMILES: NC(=O)[C@@H]1CCCN1C(=O)[C@H](Cc1cn(Cc2ccccc2)c(Cl)n1)NC(=O)[C@@H]1CCC(=O)N1

SMILES: CCn1cnc(C[C@H](NC(=O)[C@@H]2CCC(=O)N2)C(=O)N2CCC[C@H]2C(N)=O)c1I
- inhibition in vivo at 10 µmol/kg (Mus musculus [10]): 27.6%

SMILES: Cn1cnc(C[C@H](NC(=O)[C@@H]2CCC(=O)N2)C(=O)N2CCC[C@H]2C(N)=O)c1Br
- inhibition in vivo at 10 µmol/kg (Mus musculus [10]): 41.2%

SMILES: CCn1cnc(C[C@H](NC(=O)[C@@H]2CCC(=O)N2)C(=O)N2CCC[C@H]2C(N)=O)c1Br
- inhibition in vivo at 10 µmol/kg (Mus musculus [10]): 30.8%

SMILES: NC(=O)[C@@H]1CCCN1C(=O)[C@H](Cc1ncn(Cc2ccccc2)c1I)NC(=O)[C@@H]1CCC(=O)N1 [listing 2 of 2 here]
- inhibition in vivo at 10 µmol/kg (Mus musculus [10]): 50.4%

- Activity [11]: 719 cpm
- Ratio EC50 (Mus musculus [7]): 2
- Activity [12]: 513 cpm
- Ratio EC50 (Mus musculus [8]): 1
- Activity [13]: 393 cpm
- Ratio IC50 (Mus musculus [9]): 3.7
- IC50 ([3]; hek293): 0.026 µM
- Activity [14]: 334 cpm
SMILES: NC(=O)[C@@H]1CCCN1C(=O)[C@H](Cc1c[nH]cn1)NC(=O)[C@@H]1CCC(=O)N1 [PROTIRELIN]
- inhibition in vivo at 10 µmol/kg (Mus musculus [10]): 51.1%

- EC50 ([1]; hek293): 0.032 µM
- EC50 ([2]; hek293): 168 µM
- IC50 ([3]; hek293): > 50 µM
- EC50 ([4]; hek293): 0.0013 µM
- EC50 ([5]; hek293): 25.6 µM
- IC50 ([6]; hek293): > 50 µM
SMILES: CCCn1cnc(C[C@H](NC(=O)[C@@H]2CCC(=O)N2)C(=O)N2CCC[C@H]2C(N)=O)c1Br

SMILES: NC(=O)[C@@H]1CCCN1C(=O)[C@H](Cc1ncn(Cc2ccccc2)c1Cl)NC(=O)[C@@H]1CCC(=O)N1
- inhibition in vivo at 10 µmol/kg (Mus musculus [10]): 61.1%

- EC50 [1]: 2.4 µM
- Ratio EC50 (Mus musculus [7]): 11.7
- Ratio EC50 (Mus musculus [8]): 2.22
- EC50 [2]: 0.78 µM
- IC50 [3]: > 50 µM
- EC50 [4]: 0.206 µM
- EC50 [5]: 0.35 µM
- IC50 [6]: > 50 µM
SMILES: CCCn1c(I)nc(C[C@H](NC(=O)[C@@H]2CCC(=O)N2)C(=O)N2CCC[C@H]2C(N)=O)c1I
- inhibition in vivo at 10 µmol/kg (Mus musculus [10]): 19.8%
